Assay results from patent publication US11679108B2, “Aromatic heterocyclic compound, and pharmaceutical composition and use thereof” (GUANGZHOU HENOVCOM BIOSCIENCE CO., LTD., priority 2018, dated 2023).

Biological target: ATX (Homo sapiens, UniProt Q13822)
Assay: Analysis in vitro: LPC was used as substrate for screening enzyme activity (Amplex Red fluorescence)
Assay type: biochemical
Conditions: inhibitory activity against ATX, with LPC as substrate
Excerpt: Analysis In Vitro: LPC was Used as Substrate for Screening Enzyme Activity
Principle: Lysophosphatidylcholine (LPC) as substrate is hydrolyzed by using the activity of lysoPLD enzyme, to produce lysophosphatidic acid (LPA) and choline, which is oxidized to produce H2O2 under the action of choline oxidase. In presence of horse radish peroxidase (HPR), Amplex Red reagent is reacted with H2O2 in a quantitative chemistry ratio of 1 to 1, to produce strong fluorescence products, which are detected by a fluorescent quantitative test.
Experimental procedures: the compounds to be tested were dissolved in DMSO, to prepare 10 mM of stock solution, which was diluted in a gradient concentration of 3 times with DMSO from 10 mM, to generate 10 concentration gradients. The reaction buffer solution was used for preparing a mixed solution 1 of 2 ng/μl ATX, 2 U/ml HRP and 0.2 U/ml choline oxidase in a final concentration. 20 μl of the above mixed solution 1 was added to each hole of an experiment board, […]. The compounds diluted with DMSO were transferred into an experiment board with Echo550. The reaction buffer solution was used for preparing a mixed solution 2 of […] LPC and 400 μM Amplex Red in a final concentration. 20 μl of the above mixed solution 2 was added to each hole of the experiment board. After addition, the experiment board was shook for 30 seconds on a shaker, and incubated for 30 minutes. Envision was used to read the fluorescence signals with an exciting light at 530 nm and emitted light at 590 nm. Inhibition ratio of the compounds to enzyme reaction was calculated according to the ratio of fluorescence, and IC50 of the compounds was analyzed and calculated by software, seeing Table 1.

IC50 | SMILES
500 to 1000 nM | CCc1nc2sc(N3CCN(CC(=O)N4CC(O)C4)[C@@H](CO)C3)nn2c1N(C)c1nc(-c2ccc(F)cc2)c(C#N)s1 [Example 85, (R)-2-{[6-ethyl-2-(4-(2-(3-hydroxyazetidin-1-yl)-2-oxoethyl)-3-(hydroxymethyl)piperazin-1-yl)imidazo[2,1-b][1,3,4]thiadiazol-5-yl](methyl)amino}-4-(4-fluorophenyl)thiazole-5-carbonitrile]
100 to 500 nM | CCc1nc2sc(N3CC4(CN(CC(=O)N5CC(O)C5)C4)C3)nn2c1N(C)c1nc(-c2ccc(F)cc2)c(C#N)s1 [Example 6]
100 to 500 nM | CCc1nc2sc(N3CC[C@@H](N(C)CC(=O)N4CC(C(=O)OC)C4)C3)nn2c1N(C)c1nc(-c2ccc(F)cc2)c(C#N)s1 [Example 42, methyl (R)-1-{2-[(1-(5-((5-cyano-4-(4-fluorophenyl)thiazol-2-yl)(methyl)amino)-6-ethylimidazo[2,1-b][1,3,4]thiadiazol-2-yl)pyrrolidin-3-yl)(methyl)amino]acetyl}azetidine-3-carboxylate]
100 to 500 nM | CCc1nc2sc(N3CC[C@@H](N(CC)CC(=O)N4CC(O)C4)C3)nn2c1N(C)c1nc(-c2ccc(F)cc2)c(C#N)s1 [Example 89, (R)-2-{[6-ethyl-2-(3-(ethyl(2-(3-hydroxyazetidin-1-yl)-2-oxoethyl)amino)pyrrolidin-1-yl)imidazo[2,1-b][1,3,4]thiadiazol-5-yl](methyl)amino}-4-(4-fluorophenyl)thiazole-5-carbonitrile]
100 to 500 nM | CCc1nc2sc(N3CCN(CC(=O)N4CC(O)C4)[C@@H](C(=O)OC)C3)nn2c1N(C)c1nc(-c2ccc(F)cc2)c(C#N)s1 [Example 84, methyl (R)-4-{5-[(5-cyano-4-(4-fluorophenyl)thiazol-2-yl)(methyl)amino]-6-ethylimidazo[2,1-b][1,3,4]thiadiazol-2-yl}-1-(2-(3-hydroxyazetidin-1-yl)-2-oxoethyl)piperazine-2-carboxylate]
0.01 to 100 nM | CCc1nc2sc(N3CC[C@H](N(C)CC(=O)N4CC(C(=O)OC)C4)C3)nn2c1N(C)c1nc(-c2ccc(F)cc2)c(C#N)s1 [Example 43, methyl (S)-1-{2-[(1-(5-((5-cyano-4-(4-fluorophenyl)thiazol-2-yl)(methyl)amino)-6-ethylimidazo[2,1-b][1,3,4]thiadiazol-2-yl)pyrrolidin-3-yl)(methyl)amino]acetyl}azetidine-3-carboxylate]
0.01 to 100 nM | CCc1nc2sc(N3CC[C@@H](N(C=O)CC(=O)N4CC(O)C4)C3)nn2c1N(C)c1nc(-c2ccc(F)cc2)c(C#N)s1 [Example 91, (R)—N-{1-[5-((5-cyano-4-(4-fluorophenyl)thiazol-2-yl)(methyl)amino)-6-ethylimidazo[2,1-b][1,3,4]thiadiazol-2-yl]pyrrolidin-3-yl}-N-(2-(3-hydroxyazetidin-1-yl)-2-oxoethyl)formamide]
500 to 1000 nM | CCc1nc2sc(N3CCN(CC(=O)N4CC(O)C4)[C@H](C(=O)NC)C3)nn2c1N(C)c1nc(-c2ccc(F)cc2)c(C#N)s1 [Example 83, (S)-4-{5-[(5-cyano-4-(4-fluorophenyl)thiazol-2-yl)(methyl)amino]-6-ethylimidazo[2,1-b][1,3,4]thiadiazol-2-yl}-1-(2-(3-hydroxyazetidin-1-yl)-2-oxoethyl)-N-methylpiperazine-2-carboxamide]

Second part, the molecule before the results:

SMILES | IC50
CCc1nc2sc(N3CCN(S(C)(=O)=O)CC3)nn2c1N(C)c1nc(-c2ccc(F)cc2)c(C#N)s1 [Example 1] | ≥ 1000 nM
CCc1nc2sc(N3CCCC(N(C)S(C)(=O)=O)C3)nn2c1N(C)c1nc(-c2ccc(F)cc2)c(C#N)s1 (stereo not shown) [Example 13, N-{1-[5-((5-cyano-4-(4-fluorophenyl)thiazol-2-yl)(methyl)amino)-6-ethylimidazo[2,1-b][1,3,4]thiadiazol-2-yl]piperidin-3-yl}-N-methylmethanesulfonamide] | 100 to 500 nM
CCc1nc2sc(N3CC[C@@H](N(C)CC(=O)N4CCOCC4)C3)nn2c1N(C)c1nc(-c2ccc(F)cc2)c(C#N)s1 [Example 40, (R)-2-{[6-ethyl-2-(3-(methyl(2-morpholino-2-oxoethyl)amino)pyrrolidin-1-yl)imidazo[2,1-b][1,3,4]thiadiazol-5-yl](methyl)amino}-4-(4-fluorophenyl)thiazole-5-carbonitrile] | 100 to 500 nM
CCc1nc2sc(N3CCC(N(C)CC(=O)N4CC(F)C4)C3)nn2c1N(C)c1nc(-c2ccc(F)cc2)c(C#N)s1 (stereo not shown) [Example 33, 2-{[6-ethyl-2-(3-((2-(3-fluoroazetidin-1-yl)-2-oxoethyl)(methyl)amino)pyrrolidin-1-yl)imidazo[2,1-b][1,3,4]thiadiazol-5-yl](methyl)amino}-4-(4-fluorophenyl)thiazole-5-carbonitrile] | 0.01 to 100 nM
CCc1nc2sc(C3CCN(S(C)(=O)=O)CC3)nn2c1N(C)c1nc(-c2ccc(F)cc2)c(C#N)s1 [Example 16, 2-{[6-ethyl-2-(1-(methylsulfonyl)piperidin-4-yl)imidazo[2,1-b][1,3,4]thiadiazol-5-yl](methyl)amino}-4-(4-fluorophenyl)-thiazole-5-carbonitrile] | ≥ 1000 nM
COCCc1nc2sc(N3CC[C@@H](N(C)CC(=O)N4CC(O)C4)C3)nn2c1N(C)c1nc(-c2ccc(F)cc2)c(C#N)s1 [Example 88, (R)-4-(4-fluorophenyl)-2-{[2-(3-((2-(3-hydroxyazetidin-1-yl)-2-oxoethyl)(methyl)amino)pyrrolidin-1-yl)-6-(2-methoxyethyl)imidazo[2,1-b][1,3,4]thiadiazol-5-yl](methyl)amino}thiazole-5-carbonitrile] | 100 to 500 nM
CCc1nc2sc(N3CCC(N(C)C(=O)N4CCOCC4)C3)nn2c1N(C)c1nc(-c2ccc(F)cc2)c(C#N)s1 (stereo not shown) [Example 32, N-{1-[5-((5-cyano-4-(4-fluorophenyl)thiazol-2-yl)(methyl)amino)-6-ethylimidazo[2,1-b][1,3,4]thiadiazol-2-yl}pyrrolidin-3-yl}-N-methylmorpholine-4-carboxamide] | 100 to 500 nM
CCc1nc2sc(N3CCCC(N(C)C(=O)NC(C)(C)C)C3)nn2c1N(C)c1nc(-c2ccc(F)cc2)c(C#N)s1 (stereo not shown) [Example 26, 3-tert-butyl-1-{1-[5-((5-cyano-4-(4-fluorophenyl)thiazol-2-yl)(methyl)amino)-6-ethylimidazo[2,1-b][1,3,4]thiadiazol-2-yl]piperidin-3-yl}-1-methylurea] | ≥ 1000 nM
CCc1nc2sc(N3CC[C@@H](N(C)CC(=O)N4CC(C(=O)O)C4)C3)nn2c1N(C)c1nc(-c2ccc(F)cc2)c(C#N)s1 [Example 44, (R)-1-{2-[(1-(5-((5-cyano-4-(4-fluorophenyl)thiazol-2-yl)(methyl)amino)-6-ethylimidazo[2,1-b][1,3,4]thiadiazol-2-yl}pyrrolidin-3-yl)(methyl)amino]acetyl}azetidine-3-carboxylic acid] | 100 to 500 nM
CCc1nc2sc(N3CC[C@@H](N(C)CC(=O)N4CC(C#N)C4)C3)nn2c1N(C)c1nc(-c2ccc(F)cc2)c(C#N)s1 [Example 46, (R)-2-{[2-(3-((2-(3-cyanoazetidin-1-yl)-2-oxoethyl)(methyl)amino)pyrrolidin-1-yl)-6-ethylimidazo[2,1-b][1,3,4]thiadiazol-5-yl](methyl)amino}-4-(4-fluorophenyl)thiazole-5-carbonitrile] | 100 to 500 nM
CCc1nc2sc(N3CC[C@@H](N(C)CC(=O)N4CC(F)C4)C3)nn2c1N(C)c1nc(-c2ccc(F)cc2)c(C#N)s1 [Example 39, (R)-2-{[6-ethyl-2-(3-((2-(3-fluoroazetidin-1-yl)-2-oxoethyl)(methyl)amino)pyrrolidin-1-yl)imidazo[2,1-b][1,3,4]thiadiazol-5-yl](methyl)amino}-4-(4-fluorophenyl)thiazole-5-carbonitrile] | 100 to 500 nM
CCc1nc2sc(N3CCC(N(C)S(=O)(=O)C4CC4)C3)nn2c1N(C)c1nc(-c2ccc(F)cc2)c(C#N)s1 (stereo not shown) [Example 28, N-{1-[5-((5-cyano-4-(4-fluorophenyl)thiazol-2-yl)(methyl)amino)-6-ethylimidazo[2,1-b][1,3,4]thiadiazol-2-yl}pyrrolidin-3-yl}-N-methylcyclopropanesulfonamide] | 100 to 500 nM
CCc1nc2sc(N3CCC(N(C)C(=O)N4CC(O)C4)C3)nn2c1N(C)c1nc(-c2ccc(F)cc2)c(C#N)s1 (stereo not shown) [Example 30, N-{1-[5-((5-cyano-4-(4-fluorophenyl)thiazol-2-yl)(methyl)amino)-6-ethylimidazo[2,1-b][1,3,4]thiadiazol-2-yl}pyrrolidin-3-yl}-3-hydroxy-N-methylazetidine-1-carboxamide] | 0.01 to 100 nM
CN(c1nc(-c2ccc(F)cc2)c(C#N)s1)c1c(CCO)nc2sc(N3CC[C@@H](N(C)CC(=O)N4CC(O)C4)C3)nn12 [Example 87, (R)-4-(4-fluorophenyl)-2-{[2-(3-((2-(3-hydroxyazetidin-1-yl)-2-oxoethyl)(methyl)amino)pyrrolidin-1-yl)-6-(2-hydroxyethyl)imidazo[2,1-b][1,3,4]thiadiazol-5-yl](methyl)amino}thiazole-5-carbonitrile] | 500 to 1000 nM
